Data taken from the supplement of paper PMC10307832.

Legend:
Assay in all cases: relative viability (nuclei count vs DMSO), 5 days (fraction); higher = more cells survive
[1] = compound: CC(C)C[C@H](NC(=O)[C@H](CCc1ccccc1)NC(=O)CN1CCOCC1)C(=O)N[C@@H](Cc1ccccc1)C(=O)N[C@@H](CC(C)C)C(=O)[C@@]1(C)CO1 [Carfilzomib] + CC(=O)c1c(C)c2cnc(Nc3ccc(N4CCNCC4)cn3)nc2n(C2CCCC2)c1=O [Palbociclib] (partner 0.5 µM)
Summary of the method: (§1)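 Relative viability is defined as nuclei in treated wells over nuclei in vehicle wells. Duplicate plates were run and medians reported. Lung cancer cell lines in 1536-well plates were dosed by pin tool one day after seeding, with one drug or with a fixed anchor-drug dose plus five library-drug doses (not always all listed) in √10 steps, and nuclei were counted after 5 days.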

Crizotinib + Decitabine = compound: C[C@@H](Oc1cc(-c2cnn(C3CCNCC3)c2)cnc1N)c1c(Cl)ccc(F)c1Cl [Crizotinib] + Nc1ncn([C@H]2C[C@H](O)[C@@H](CO)O2)c(=O)n1 [Decitabine] (partner 2 µM)
Summary of the method: as §1

Carfilzomib + Pictilisib = compound: CC(C)C[C@H](NC(=O)[C@H](CCc1ccccc1)NC(=O)CN1CCOCC1)C(=O)N[C@@H](Cc1ccccc1)C(=O)N[C@@H](CC(C)C)C(=O)[C@@]1(C)CO1 [Carfilzomib] + CS(=O)(=O)N1CCN(Cc2cc3nc(-c4cccc5[nH]ncc45)nc(N4CCOCC4)c3s2)CC1 [Pictilisib] (partner 1 µM)
Summary of the method: as §1

Crizotinib + Bortezomib = compound: C[C@@H](Oc1cc(-c2cnn(C3CCNCC3)c2)cnc1N)c1c(Cl)ccc(F)c1Cl [Crizotinib] + CC(C)C[C@H](NC(=O)[C@H](Cc1ccccc1)NC(=O)c1cnccn1)B(O)O [Bortezomib] (partner 0.002 µM)
Summary of the method: as §1

| Cell Line | relative viability ([1]; first compound 0.001 µM) | relative viability ([1]; first compound 0.003162 µM) | relative viability ([1]; first compound 0.01 µM) | relative viability ([1]; first compound 0.03162 µM) | relative viability ([1]; first compound 0.1 µM) | relative viability (Crizotinib + Decitabine; first compound 0.01 µM) | relative viability (Crizotinib + Decitabine; first compound 0.03162 µM) | relative viability (Crizotinib + Decitabine; first compound 0.1 µM) | relative viability (Crizotinib + Decitabine; first compound 0.3162 µM) | relative viability (Crizotinib + Decitabine; first compound 1 µM) | relative viability (Carfilzomib + Pictilisib; first compound 0.001 µM) | relative viability (Carfilzomib + Pictilisib; first compound 0.003162 µM) | relative viability (Carfilzomib + Pictilisib; first compound 0.01 µM) | relative viability (Carfilzomib + Pictilisib; first compound 0.03162 µM) | relative viability (Carfilzomib + Pictilisib; first compound 0.1 µM) | relative viability (Crizotinib + Bortezomib; first compound 0.01 µM) | relative viability (Crizotinib + Bortezomib; first compound 0.03162 µM) | relative viability (Crizotinib + Bortezomib; first compound 0.3162 µM) | relative viability (Crizotinib + Bortezomib; first compound 1 µM) | relative viability (Crizotinib + Bortezomib; first compound 0.1 µM) |
| --- | --- | --- | --- | --- | --- | --- | --- | --- | --- | --- | --- | --- | --- | --- | --- | --- | --- | --- | --- | --- |
| BEN | 0.491 | 0.465 | 0.455 | 0.499 | 0.319 | 0.687 | 0.61 | 0.761 | 0.632 | 0.647 | 0.635 | 0.679 | 0.587 | 0.523 | 0.249 | 0.862 | 0.788 | 0.815 | 0.78 | – |
| COR-L23 | 0.29 | 0.305 | 0.211 | 0.0606 | 0.064 | 0.346 | 0.463 | 0.454 | 0.386 | 0.392 | 0.756 | 0.806 | 0.678 | 0.0485 | 0.0565 | 0.927 | 0.9 | 0.989 | 0.96 | 0.915 |
| COR-L 105 | 0.413 | 0.414 | 0.35 | 0.317 | 0.329 | 0.583 | 0.675 | 0.658 | 0.629 | 0.713 | 0.414 | 0.437 | 0.346 | 0.289 | 0.23 | 0.825 | 0.778 | 0.699 | 0.941 | 0.787 |
| ChaGo-K-1 | 0.926 | 0.931 | 0.907 | 0.313 | 0.153 | 0.485 | 0.488 | 0.528 | 0.463 | 0.536 | – | 1.27 | 0.839 | 0.523 | 0.348 | 0.947 | – | – | 0.96 | 1.2 |
| EKVX | 0.369 | 0.474 | 0.427 | – | 0.137 | 0.29 | 0.339 | 0.323 | 0.336 | 0.337 | 0.443 | 0.492 | 0.542 | 0.476 | 0.169 | 1.06 | 1.05 | 0.934 | 1.1 | 0.959 |
| EMC-BAC-2 | 0.531 | 0.539 | 0.51 | 0.455 | 0.316 | 0.96 | 0.921 | 1.01 | – | 0.967 | 0.503 | 0.612 | 0.586 | 0.574 | 0.258 | 1.04 | 1.08 | 1 | 1.03 | 0.997 |
| EPLC-272H | 0.285 | 0.337 | 0.317 | 0.114 | 0.0482 | 0.339 | 0.375 | 0.366 | – | 0.436 | 0.188 | 0.363 | 0.322 | 0.0934 | 0.0877 | 0.87 | 0.865 | 0.912 | – | 1.03 |
| H3255 | 0.334 | 0.331 | 0.309 | 0.231 | 0.264 | 0.701 | 0.576 | 0.616 | 0.558 | 0.653 | 0.433 | 0.52 | 0.426 | 0.423 | 0.177 | 0.736 | 0.925 | 0.681 | 0.659 | 0.814 |
| HARA | 0.28 | 0.257 | 0.306 | 0.182 | 0.0965 | 0.489 | 0.524 | 0.514 | 0.4 | 0.531 | 0.422 | 0.609 | 0.385 | 0.0609 | 0.0598 | 1.02 | 1.08 | 1.13 | 1.12 | 1.11 |
| HCC-15 | 0.706 | 0.688 | 0.751 | 0.61 | 0.206 | 0.663 | 0.71 | 0.657 | 0.527 | 0.599 | 0.596 | 0.863 | 0.784 | 0.522 | 0.156 | 0.916 | – | 0.826 | 0.891 | 1.06 |
| HCC-44 | 1.02 | 0.938 | 0.999 | 0.999 | 0.69 | 0.959 | 0.943 | – | 0.844 | 0.915 | 0.506 | 0.674 | 0.57 | 0.654 | 0.166 | 0.903 | 0.751 | 0.773 | 0.952 | 0.936 |
| HCC-78 | 0.431 | 0.454 | 0.528 | 0.439 | 0.348 | 0.754 | 0.759 | 0.669 | 0.593 | 0.661 | 0.207 | 0.194 | 0.236 | 0.134 | 0.117 | 0.437 | 0.466 | 0.399 | 0.447 | 0.472 |
| HCC-366 | 0.374 | 0.361 | 0.396 | 0.327 | 0.0404 | 0.31 | 0.294 | 0.406 | – | 0.36 | 0.129 | 0.175 | 0.17 | 0.312 | 0.0504 | 1.01 | 1.04 | – | 1.15 | 1.02 |
| HCC-827 | 0.499 | 0.459 | 0.72 | 0.459 | 0.159 | 0.333 | 0.241 | 0.328 | 0.306 | 0.321 | 1.06 | 1.08 | 1.06 | 1.05 | 0.487 | 0.887 | 1.06 | 0.999 | 0.931 | 1.14 |
| HOP-62 | 0.44 | 0.496 | 0.41 | 0.19 | 0.0616 | 0.174 | 0.22 | 0.23 | 0.197 | 0.202 | 0.569 | 1.11 | 0.467 | 0.0638 | 0.0695 | 0.822 | 0.788 | 0.523 | 0.584 | 1.03 |
